Holding throughout (format): cell-based
The test system of test [1] is human breast cancer (MCF-7) cell line. In words: Inhibition of tumour cell proliferation in vitro, [3H]thymidine incorporation, MCF-7. Particulars: MCF-7 cells, 24 hours with compound, DNA synthesis by [3H]thymidine incorporation. The method, then:
(§1) The inhibition of tumour cell proliferation was studied using different types of human cancer cell lines. The cell lines under investigation were small cell lung carcinoma (NYH), non small cell lung carcinoma (NCl-H460), and breast cancer (MCF-7) using the following general procedure:
(§2) The cells were cultured in vitro for 24 hours in the presence of the compound under investigation. DNA synthesis was measured by incorporation of [^3H]thymidine, and the median inhibitory concentrations (IC50) of the compounds were calculated.

Test [2] deals with human small cell lung carcinoma (NYH) cell line. Briefly: Inhibition of tumour cell proliferation in vitro, [3H]thymidine incorporation, NYH. Particulars: NYH cells, 24 hours with compound, DNA synthesis by [3H]thymidine incorporation. As to the method:
as §1, §2

The subject of test [3] is human non small cell lung cancer (NCI-H460) cell line. In words: Inhibition of tumour cell proliferation in vitro, [3H]thymidine incorporation, NCI-H460. As to conditions: NCI-H460 cells, 24 hours with compound, DNA synthesis by [3H]thymidine incorporation. The method, then: as §1, §2
(In general: Dividing cells build labelled thymidine or BrdU into new DNA.)

By IC50 is commonly meant the concentration that inhibits the measured activity by half. With `CC(C)(C)OC(=O)NCCCCCCCCCCCCNC(=Nc1ccncc1)NC#N` [Example No. 1, N-(1 2-t-Butoxycarbonylaminododecyl)-N′-cyano-N″-4-pyridylguanidine], the IC50 in test [1] (Homo sapiens, MCF7) is 3.6 nM; in test [2] (Homo sapiens) it was 0.62 nM; in test [3] (Homo sapiens) it was 45 nM.

As to `N#CNC(=NCCCCCCCCCCCOC1CCCCO1)Nc1ccncc1` (stereo not drawn) [Example No. 7, N-Cyano-N′-4-pyridyl-N″-(11-tetrahydropyranyloxyundecanyl)guanidine], the IC50 worked out at 4.2 nM in test [1], 0.51 nM in test [2] and 4.6 nM in test [3].

In the case of `CCP(=O)(CC)OCCCCCCCCCCCNC(=Nc1ccncc1)NC#N` [Example No. 8, N-Cyano-N′-(11-diethylphosphinoyloxyundecanyl)-N″-4-pyridylguanidine], the IC50 came to 1.7 nM in test [1] (Homo sapiens, MCF7); 0.48 nM in test [2] (Homo sapiens); 6 nM in test [3] (Homo sapiens).

The values above are taken from US6646129B2, “Cyanoguanidines as cell proliferation inhibitors” (Leo Pharmaceutical Products Ltd. A/S, priority 1997, dated 2003).
